{"source": "paper PMC6481345", "about": "“A novel anti-melanoma SRC-family kinase inhibitor” (Oncotarget, 2019)", "key": {"LYN": {"target": "LYN (Homo sapiens, UniProt P07948)", "sequence (P07948 whole entry)": "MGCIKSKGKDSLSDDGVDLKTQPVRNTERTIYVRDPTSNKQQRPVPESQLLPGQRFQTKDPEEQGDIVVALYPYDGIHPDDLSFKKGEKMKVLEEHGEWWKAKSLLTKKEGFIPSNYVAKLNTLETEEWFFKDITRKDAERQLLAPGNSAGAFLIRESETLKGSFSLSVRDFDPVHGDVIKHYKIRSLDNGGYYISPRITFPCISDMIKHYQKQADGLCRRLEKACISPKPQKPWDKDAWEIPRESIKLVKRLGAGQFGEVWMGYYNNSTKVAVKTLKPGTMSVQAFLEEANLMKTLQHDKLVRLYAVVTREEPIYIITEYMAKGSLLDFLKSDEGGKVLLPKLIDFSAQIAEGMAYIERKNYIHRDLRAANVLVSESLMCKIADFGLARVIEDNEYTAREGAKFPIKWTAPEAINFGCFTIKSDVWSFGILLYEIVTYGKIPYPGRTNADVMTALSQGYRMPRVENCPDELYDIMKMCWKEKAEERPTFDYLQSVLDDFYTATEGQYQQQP", "assay": "Radioisotope filter activity assay, recombinant kinase", "format": "biochemical", "parameters": "purchased Reaction Biology Corporation", "conditions": "10 point dose response, 10 µM ATP", "description": "(§1) The effect of SAB298 on a panel of 36 recombinant kinases, was screed with the radioisotope filter binding assay employing 10 concentrations of the compound with 10 µM ATP (Reaction Biology Corporation, Malvern, PA). In addition, we tested the endogenous kinome response to SAB298 (0.05 µM, 0.5 µM and 5 µM) in lysates from two melanoma cell lines (YUSIV and YUSIK) employing the KiNativ® platform (ActivX Biosciences Inc., La Jolla, CA). KiNativ® is a robust, high performance mass spectrometry (LC-MS^2) assay that uses biotinylated probes to measure relevant changes in the affinity to the ATP-binding sites of 205 native kinases as a function of cellular context. We also validated SAB298 effect on the activity of SRC-family kinases by probing for phosphorylated Y416, the marker of activated SFKs, with anti-IEDNEpYTAR antibodies (also known as Y419, #2101, Cell Signaling Technology, Beverly, MA). In some cases the cells were incubated overnight with 20 µM proteasome inhibitor MG-132 (CAS 133407-82-6, Millipore Sigma, Burlington, MA) to rescue degradation.\n(§2) Supplemntary Table 3: Radioisotope filter activity assay Tests for SAB298 target protein\n(§3) *These are results from 10 point dose response test employed with 10 µM ATP. […]\n(§4) SRC TRCN0000195339 3ʹUTR […]\n(§5) YES TRCN0000001611 CDS […]\n(§6) FYN TRCN0000003099 CDS […]\n(§7) LY N TRCN0000230901 CDS […]"}, "YES1": {"target": "YES1 (Homo sapiens, UniProt P07947)", "sequence (P07947 whole entry)": "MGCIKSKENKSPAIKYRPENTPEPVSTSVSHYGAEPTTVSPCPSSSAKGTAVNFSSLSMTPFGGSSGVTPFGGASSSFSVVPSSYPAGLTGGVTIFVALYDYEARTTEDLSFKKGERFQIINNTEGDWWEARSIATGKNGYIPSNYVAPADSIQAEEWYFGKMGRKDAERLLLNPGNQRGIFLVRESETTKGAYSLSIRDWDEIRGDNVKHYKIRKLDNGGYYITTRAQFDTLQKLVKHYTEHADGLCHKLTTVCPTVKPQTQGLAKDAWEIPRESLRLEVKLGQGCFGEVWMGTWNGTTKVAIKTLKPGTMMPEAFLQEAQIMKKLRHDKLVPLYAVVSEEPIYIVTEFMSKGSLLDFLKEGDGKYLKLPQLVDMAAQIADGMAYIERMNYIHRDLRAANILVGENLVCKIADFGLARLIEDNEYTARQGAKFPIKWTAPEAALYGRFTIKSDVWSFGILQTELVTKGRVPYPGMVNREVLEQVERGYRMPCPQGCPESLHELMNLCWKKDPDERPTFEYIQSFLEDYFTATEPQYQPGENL", "assay": "Radioisotope filter activity assay, recombinant kinase", "format": "biochemical", "parameters": "purchased Reaction Biology Corporation", "conditions": "10 point dose response, 10 µM ATP", "description": "as §1, §2, §3, §4, §5, §6, §7"}, "ERBB2": {"target": "ERBB2 (Homo sapiens, UniProt P04626)", "sequence (P04626 23-1255)": "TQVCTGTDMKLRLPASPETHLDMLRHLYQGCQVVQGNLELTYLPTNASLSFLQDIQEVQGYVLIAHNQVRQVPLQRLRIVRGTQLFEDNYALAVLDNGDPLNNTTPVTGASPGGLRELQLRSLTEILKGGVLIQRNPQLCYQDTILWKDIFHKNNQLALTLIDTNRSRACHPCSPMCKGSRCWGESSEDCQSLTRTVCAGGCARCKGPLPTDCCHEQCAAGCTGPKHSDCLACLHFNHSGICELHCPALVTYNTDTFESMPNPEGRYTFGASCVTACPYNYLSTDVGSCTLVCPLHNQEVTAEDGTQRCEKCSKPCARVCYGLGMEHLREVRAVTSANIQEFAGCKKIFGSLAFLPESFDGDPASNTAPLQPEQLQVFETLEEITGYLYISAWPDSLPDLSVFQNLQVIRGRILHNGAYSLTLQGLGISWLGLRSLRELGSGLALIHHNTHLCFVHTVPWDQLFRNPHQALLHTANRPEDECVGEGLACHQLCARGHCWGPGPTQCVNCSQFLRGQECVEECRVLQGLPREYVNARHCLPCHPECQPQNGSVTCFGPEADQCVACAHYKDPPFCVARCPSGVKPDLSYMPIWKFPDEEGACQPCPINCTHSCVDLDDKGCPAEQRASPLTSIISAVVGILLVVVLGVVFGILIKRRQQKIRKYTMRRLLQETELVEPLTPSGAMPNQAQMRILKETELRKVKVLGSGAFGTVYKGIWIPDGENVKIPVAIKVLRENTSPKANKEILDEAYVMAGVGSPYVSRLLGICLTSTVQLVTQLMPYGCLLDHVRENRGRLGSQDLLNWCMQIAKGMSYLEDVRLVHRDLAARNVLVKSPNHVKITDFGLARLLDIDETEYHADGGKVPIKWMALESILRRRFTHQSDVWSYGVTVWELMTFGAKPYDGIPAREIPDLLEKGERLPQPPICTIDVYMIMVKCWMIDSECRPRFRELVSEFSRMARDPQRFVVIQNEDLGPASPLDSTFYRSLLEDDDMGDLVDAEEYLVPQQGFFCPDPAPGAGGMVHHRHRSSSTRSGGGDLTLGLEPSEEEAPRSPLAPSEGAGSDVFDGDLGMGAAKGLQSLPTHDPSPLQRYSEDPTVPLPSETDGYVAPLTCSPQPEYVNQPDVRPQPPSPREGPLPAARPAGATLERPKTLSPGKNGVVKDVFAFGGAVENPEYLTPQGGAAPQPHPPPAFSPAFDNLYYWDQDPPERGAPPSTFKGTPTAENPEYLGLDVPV", "assay": "Radioisotope filter activity assay, recombinant kinase", "format": "biochemical", "parameters": "purchased Reaction Biology Corporation", "conditions": "10 point dose response, 10 µM ATP", "description": "as §1, §2, §3, §4, §5, §6, §7"}, "CSK": {"target": "CSK (Homo sapiens, UniProt P41240)", "sequence (P41240 whole entry)": "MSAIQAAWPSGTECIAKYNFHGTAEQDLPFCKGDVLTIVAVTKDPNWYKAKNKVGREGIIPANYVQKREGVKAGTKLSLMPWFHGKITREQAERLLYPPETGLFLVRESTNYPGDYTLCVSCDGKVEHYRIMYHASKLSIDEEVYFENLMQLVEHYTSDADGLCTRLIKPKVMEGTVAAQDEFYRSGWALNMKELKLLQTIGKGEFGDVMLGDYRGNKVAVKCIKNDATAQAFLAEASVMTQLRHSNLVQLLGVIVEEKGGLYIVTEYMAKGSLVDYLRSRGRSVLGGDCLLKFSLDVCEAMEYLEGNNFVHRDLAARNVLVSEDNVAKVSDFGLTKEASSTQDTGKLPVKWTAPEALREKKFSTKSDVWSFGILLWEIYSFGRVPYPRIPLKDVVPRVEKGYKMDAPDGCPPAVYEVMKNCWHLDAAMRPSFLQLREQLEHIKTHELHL", "assay": "Radioisotope filter activity assay, recombinant kinase", "format": "biochemical", "parameters": "purchased Reaction Biology Corporation", "conditions": "10 point dose response, 10 µM ATP", "description": "as §1, §2, §3, §4, §5, §6, §7"}, "ABL2": {"target": "ABL2 (Homo sapiens, UniProt P42684)", "sequence (P42684 whole entry)": "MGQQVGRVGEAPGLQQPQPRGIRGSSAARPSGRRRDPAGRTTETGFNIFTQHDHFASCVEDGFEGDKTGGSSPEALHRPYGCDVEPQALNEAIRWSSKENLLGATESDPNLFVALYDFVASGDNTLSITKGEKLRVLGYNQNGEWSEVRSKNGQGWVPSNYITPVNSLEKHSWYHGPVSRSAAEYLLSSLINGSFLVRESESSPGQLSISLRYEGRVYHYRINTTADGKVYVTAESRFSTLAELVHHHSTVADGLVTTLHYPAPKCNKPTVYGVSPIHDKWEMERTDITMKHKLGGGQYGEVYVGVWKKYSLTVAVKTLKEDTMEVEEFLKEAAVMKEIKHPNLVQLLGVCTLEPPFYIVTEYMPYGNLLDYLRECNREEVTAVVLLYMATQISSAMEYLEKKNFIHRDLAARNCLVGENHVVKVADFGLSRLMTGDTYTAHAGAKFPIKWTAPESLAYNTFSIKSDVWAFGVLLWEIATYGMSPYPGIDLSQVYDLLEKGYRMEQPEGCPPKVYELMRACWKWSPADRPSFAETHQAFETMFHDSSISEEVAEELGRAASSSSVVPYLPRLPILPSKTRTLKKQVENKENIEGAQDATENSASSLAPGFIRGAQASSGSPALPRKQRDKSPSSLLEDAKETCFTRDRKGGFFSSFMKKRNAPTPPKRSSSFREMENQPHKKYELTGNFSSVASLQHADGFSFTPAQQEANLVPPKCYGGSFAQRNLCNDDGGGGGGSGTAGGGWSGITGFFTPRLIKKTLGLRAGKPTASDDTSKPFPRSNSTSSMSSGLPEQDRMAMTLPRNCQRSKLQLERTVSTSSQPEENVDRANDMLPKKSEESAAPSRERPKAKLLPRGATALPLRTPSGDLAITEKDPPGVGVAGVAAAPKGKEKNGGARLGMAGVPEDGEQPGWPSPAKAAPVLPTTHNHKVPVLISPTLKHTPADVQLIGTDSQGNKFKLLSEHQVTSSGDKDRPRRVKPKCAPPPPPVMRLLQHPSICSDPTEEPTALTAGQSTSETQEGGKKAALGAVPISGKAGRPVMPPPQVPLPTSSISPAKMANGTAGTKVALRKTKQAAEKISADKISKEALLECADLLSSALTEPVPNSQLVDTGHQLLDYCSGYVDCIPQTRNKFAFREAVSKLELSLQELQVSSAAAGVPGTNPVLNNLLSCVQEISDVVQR", "assay": "Radioisotope filter activity assay, recombinant kinase", "format": "biochemical", "parameters": "purchased Reaction Biology Corporation", "conditions": "10 point dose response, 10 µM ATP", "description": "as §1, §2, §3, §4, §5, §6, §7"}, "LCK": {"target": "LCK (Homo sapiens, UniProt P06239)", "sequence (P06239 whole entry)": "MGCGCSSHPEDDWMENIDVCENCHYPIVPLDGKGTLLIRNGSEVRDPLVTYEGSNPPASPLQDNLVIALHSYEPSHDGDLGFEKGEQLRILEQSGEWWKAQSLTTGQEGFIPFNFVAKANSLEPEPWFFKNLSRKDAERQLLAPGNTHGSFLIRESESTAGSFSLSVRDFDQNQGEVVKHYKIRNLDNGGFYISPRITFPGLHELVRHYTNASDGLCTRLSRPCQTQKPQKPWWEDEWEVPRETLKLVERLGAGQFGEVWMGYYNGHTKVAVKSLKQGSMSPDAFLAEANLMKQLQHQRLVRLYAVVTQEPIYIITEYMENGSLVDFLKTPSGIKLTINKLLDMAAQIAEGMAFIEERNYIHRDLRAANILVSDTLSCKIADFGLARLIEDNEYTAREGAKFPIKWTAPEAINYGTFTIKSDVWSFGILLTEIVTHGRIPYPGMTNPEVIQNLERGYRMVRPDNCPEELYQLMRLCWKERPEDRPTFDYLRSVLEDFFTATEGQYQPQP", "assay": "Radioisotope filter activity assay, recombinant kinase", "format": "biochemical", "parameters": "purchased Reaction Biology Corporation", "conditions": "10 point dose response, 10 µM ATP", "description": "as §1, §2, §3, §4, §5, §6, §7"}, "SRC": {"target": "SRC (Homo sapiens, UniProt P12931)", "sequence (P12931 whole entry)": "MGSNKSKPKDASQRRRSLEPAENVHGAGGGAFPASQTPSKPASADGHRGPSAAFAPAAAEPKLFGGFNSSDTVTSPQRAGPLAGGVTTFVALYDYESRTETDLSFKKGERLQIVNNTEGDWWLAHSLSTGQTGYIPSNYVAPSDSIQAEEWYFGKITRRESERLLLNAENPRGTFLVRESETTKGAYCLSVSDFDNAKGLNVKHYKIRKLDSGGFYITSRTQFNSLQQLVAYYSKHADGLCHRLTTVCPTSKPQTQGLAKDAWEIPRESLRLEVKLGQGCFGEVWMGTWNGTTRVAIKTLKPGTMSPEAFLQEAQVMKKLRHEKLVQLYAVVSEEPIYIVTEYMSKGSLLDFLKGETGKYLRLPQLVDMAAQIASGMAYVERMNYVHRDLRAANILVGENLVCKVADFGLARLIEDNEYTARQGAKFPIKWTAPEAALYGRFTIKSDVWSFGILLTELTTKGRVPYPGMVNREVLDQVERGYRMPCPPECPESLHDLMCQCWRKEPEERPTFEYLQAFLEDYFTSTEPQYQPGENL", "assay": "Radioisotope filter activity assay, recombinant kinase", "format": "biochemical", "parameters": "purchased Reaction Biology Corporation", "conditions": "10 point dose response, 10 µM ATP", "description": "as §1, §2, §3, §4, §5, §6, §7"}, "[1]": {"tested_on": "MOLT-4 leukemia cell line", "assay": "NCI-60 human tumor cell line screen", "format": "cell-based", "description": "(§8) We first tested the impact of SAB298 on NCI-60 human tumor cell lines that included eight melanomas (performed by the NCI Development Therapeutics Program).\n(§9) SFK-inhibitors were tested on a panel of NCI-60 cell lines (Supplementary Table 1) and 30 melanoma cell lines and NBMEL, i.e., normal human melanocytes isolated from a newborn foreskin (Table 1 and Supplementary Table 2). The Yale melanoma cohort designated YU originated from tumors excised to improve patient quality of life and used with participants’ informed consent according to Health Insurance Portability and Accountability Act (HIPAA) regulations with Human Investigative Committee protocol.\n(§10) Supplementary Table 1: Cellular activity of SAB298 in a Panel of NCI-60 cancer cell lines*\n(§11) measured protein; and TI is LC50/GI50.\n(§12) Supplementary Table 2: Description of Melanoma Cell lines. See Supplementary_Table_2"}, "[2]": {"tested_on": "LOX IMVI melanoma cell line", "assay": "NCI-60 human tumor cell line screen", "format": "cell-based", "description": "as §8, §9, §10, §11, §12"}, "HOP-62 NSCLC cell line": {"tested_on": "HOP-62 NSCLC cell line", "assay": "NCI-60 human tumor cell line screen", "format": "cell-based", "description": "as §8, §9, §10, §11, §12"}, "[3]": {"tested_on": "CCRF-CEM leukemia cell line", "assay": "NCI-60 human tumor cell line screen", "format": "cell-based", "description": "as §8, §9, §10, §11, §12"}, "M14 melanoma cell line": {"tested_on": "M14 melanoma cell line", "assay": "NCI-60 human tumor cell line screen", "format": "cell-based", "description": "as §8, §9, §10, §11, §12"}, "[4]": {"tested_on": "MCF7 breast cancer cell line", "assay": "NCI-60 human tumor cell line screen", "format": "cell-based", "description": "as §8, §9, §10, §11, §12"}, "[5]": {"tested_on": "UACC-257 melanoma cell line", "assay": "NCI-60 human tumor cell line screen", "format": "cell-based", "description": "as §8, §9, §10, §11, §12"}, "[6]": {"tested_on": "MALME-3M melanoma cell line", "assay": "NCI-60 human tumor cell line screen", "format": "cell-based", "description": "as §8, §9, §10, §11, §12"}, "[7]": {"tested_on": "HCT-116 colon cancer cell line", "assay": "NCI-60 human tumor cell line screen", "format": "cell-based", "description": "as §8, §9, §10, §11, §12"}, "[8]": {"tested_on": "MDA-MB-435 melanoma cell line", "assay": "NCI-60 human tumor cell line screen", "format": "cell-based", "description": "as §8, §9, §10, §11, §12"}, "[9]": {"tested_on": "SK-MEL-5 melanoma cell line", "assay": "NCI-60 human tumor cell line screen", "format": "cell-based", "description": "as §8, §9, §10, §11, §12"}, "[10]": {"tested_on": "SK-MEL-28 melanoma cell line", "assay": "NCI-60 human tumor cell line screen", "format": "cell-based", "description": "as §8, §9, §10, §11, §12"}, "[11]": {"tested_on": "SK-MEL-2 melanoma cell line", "assay": "NCI-60 human tumor cell line screen", "format": "cell-based", "description": "as §8, §9, §10, §11, §12"}, "[12]": {"tested_on": "NBMEL normal human melanocytes", "assay": "CellTiter-Glo Luminescent Cell Viability Assay", "format": "cell-based", "conditions": "Melanocyte, WT, 72 hrs", "description": "as §9\nThe melanoma cells were grown in OptiMEM (Invitrogen, Carlsbad, CA) supplemented with 5% fetal calf serum and antibiotics. The normal human melanocytes (NBMEL) were grown in medium supplemented with bFGF, IBMX and dbcAMP [32]. Most of the Yale melanoma cell lines were characterized by next-generation sequencing (Supplementary Table 2).\nCell proliferation was measured with the CellTiter-Glo® Luminescent Cell Viability Assay (Promega Corporation, Madison, WI). Melanoma cells were seeded in 96-well plates in triplicate or quadruplet wells, with increasing concentrations of kinase inhibitors for 72 hrs. The rate of proliferation was also tested after knockdown of different SRC-family kinases (SFK) with hairpin lentivirus shRNA as indicated. […] The statistical significance of synergism of response to drug combinations was evaluated by following Chou and Talalay algorithm. […]"}, "[13]": {"tested_on": "NCI-60 melanoma cell lines", "assay": "NCI-60 human tumor cell line screen, melanomas (summary)", "format": "cell-based", "conditions": "melanoma cell lines of NCI-60, read-out: IC50, range over cell lines", "description": "as §8, §9, §10, §11, §12"}, "[14]": {"conditions": "50% growth inhibition, five dose, average of 2 experiments"}, "[15]": {"conditions": "cytotoxic concentration, 50% reduction in measured protein, read-out: LC50 (the source's name)"}}, "note": "pIC50: −log10 of the molar value.", "data": [{"molecule": "Nc1ncnc2c1c(-c1ccc(Oc3ccccc3)cc1)nn2C[C@@H]1SSC[C@@H]1O", "note": "[SAB298, (3S, 4S)-3-((4-amino-3-(4-phenoxyphenyl)-1H-pyrazolo[3,4-d]pyrimidin-1-yl)methyl)-1,2-dithiolan-4-ol]", "values": [{"measurement": "pIC50", "setting": "LYN", "result": 6.86}, {"measurement": "pIC50", "setting": "YES1", "result": 9.15}, {"measurement": "pIC50", "setting": "ERBB2", "result": 5.05}, {"measurement": "pIC50", "setting": "CSK", "result": 6.86}, {"measurement": "pIC50", "setting": "ABL2", "result": 5.59}, {"measurement": "pIC50", "setting": "LCK", "result": 8.11}, {"measurement": "pIC50", "setting": "SRC", "result": 6.57}, {"measurement": "GI50", "setting": "[1]; [14]", "result": 32, "unit": "nM"}, {"measurement": "CC50", "setting": "[1]; [15]", "result": "> 100000", "unit": "nM"}, {"measurement": "GI50", "setting": "[2]; [14]", "result": 170, "unit": "nM"}, {"measurement": "CC50", "setting": "[2]; [15]", "result": 4560, "unit": "nM"}, {"measurement": "GI50", "setting": "HOP-62 NSCLC cell line; [14]", "result": 227, "unit": "nM"}, {"measurement": "CC50", "setting": "HOP-62 NSCLC cell line; [15]", "result": 23600, "unit": "nM"}, {"measurement": "GI50", "setting": "[3]; [14]", "result": 61, "unit": "nM"}, {"measurement": "CC50", "setting": "[3]; [15]", "result": "> 100000", "unit": "nM"}, {"measurement": "GI50", "setting": "M14 melanoma cell line; [14]", "result": 21, "unit": "nM"}, {"measurement": "CC50", "setting": "M14 melanoma cell line; [15]", "result": 105, "unit": "nM"}, {"measurement": "GI50", "setting": "[4]; [14]", "result": 138, "unit": "nM"}, {"measurement": "CC50", "setting": "[4]; [15]", "result": 53000, "unit": "nM"}, {"measurement": "GI50", "setting": "[5]; [14]", "result": 374, "unit": "nM"}, {"measurement": "CC50", "setting": "[5]; [15]", "result": 93500, "unit": "nM"}, {"measurement": "GI50", "setting": "[6]; [14]", "result": 550, "unit": "nM"}, {"measurement": "CC50", "setting": "[6]; [15]", "result": "> 100000", "unit": "nM"}, {"measurement": "GI50", "setting": "[7]; [14]", "result": 134, "unit": "nM"}, {"measurement": "CC50", "setting": "[7]; [15]", "result": 6520, "unit": "nM"}, {"measurement": "GI50", "setting": "[8]; [14]", "result": 103, "unit": "nM"}, {"measurement": "CC50", "setting": "[8]; [15]", "result": 618, "unit": "nM"}, {"measurement": "GI50", "setting": "[9]; [14]", "result": 251, "unit": "nM"}, {"measurement": "CC50", "setting": "[9]; [15]", "result": 2680, "unit": "nM"}, {"measurement": "GI50", "setting": "[10]; [14]", "result": 88, "unit": "nM"}, {"measurement": "CC50", "setting": "[10]; [15]", "result": "> 100000", "unit": "nM"}, {"measurement": "GI50", "setting": "[11]; [14]", "result": 212, "unit": "nM"}, {"measurement": "CC50", "setting": "[11]; [15]", "result": 19400, "unit": "nM"}, {"measurement": "pIC50", "setting": "[12]", "result": 6.01}, {"measurement": "pIC50", "setting": "[13]", "result": "6.26 to 7.68"}]}]}
